Results: publication PMC10206591, “Identification of small molecules capable of enhancing viral membrane fusion” (Virology Journal, 2023)
Counter-ions that a name gives are not always drawn.

Each compound was assayed on SARS-CoV-2 S-mediated membrane fusion.

| SMILES | Z-score |
| --- | --- |
| CC=CC(=O)N(CC)c1ccccc1C (mixture of isomers) [Crotamiton] | 2,94 |
| O=c1[nH]cc(F)c(=O)[nH]1 [5-fluorouracil] | 3,16 |
| CC(=O)c1ccc2c(c1)N(CCCN(C)C)c1ccccc1S2.O=C(O)/C=C\C(=O)O [Acetopromazine maleate salt] | 1,71 |
| CCCSc1ccc2nc(NC(=O)OC)[nH]c2c1 [Albendazole] | 1,67 |
| C=CC[C@]1(O)CC[C@H]2[C@@H]3CCC4=CC(=O)CCC4=C3C=C[C@@]21C [Altrenogest] | 2,61 |
| CCCCCC[C@H]1C(=O)O[C@H](C)[C@H](NC(=O)c2cccc(NC=O)c2O)C(=O)O[C@@H](C)[C@@H]1OC(=O)CC(C)C [Antimycin A] | 4,08 |
| CC(C)c1c(C(=O)Nc2ccccc2)c(-c2ccccc2)c(-c2ccc(F)cc2)n1CC[C@@H](O)C[C@@H](O)CC(=O)O [Atorvastatin] | 1,88 |
| Nc1nc(O)c2[nH]nnc2n1 [Azaguanine-8] | 6,79 |
| CCCC1C(=O)N2C(N(C)C)=Nc3ccc(C)cc3N2C1=O (stereo not shown) [Azapropazone] | 1,91 |
| CN1CCCC(n2nc(Cc3ccc(Cl)cc3)c3ccccc3c2=O)CC1 (stereo not shown) [Azelastine hydrochloride] | 1,52 |
| Cl.N[C@@H]1CCCCN(c2c(F)cc3c(=O)c(C(=O)O)cn(C4CC4)c3c2Cl)C1 [Besifloxacin hydrochloride] | 2,15 |
| CC(C)C[C@H]1C(=O)N2CCC[C@H]2[C@]2(O)O[C@](NC(=O)[C@@H]3C=C4c5cccc6[nH]c(Br)c(c56)C[C@H]4N(C)C3)(C(C)C)C(=O)N12.CS(=O)(=O)O [Bromocryptine mesylate] | 5,89 |
| CCCCCCNC(=O)n1cc(F)c(=O)[nH]c1=O [Carmofur] | 4,69 |
| O=C(N[C@H](CO)[C@H](O)c1ccc([N+](=O)[O-])cc1)C(Cl)Cl [Chloramphenicol] | 2,64 |
| Nc1nc(Cl)nc2c1ncn2[C@H]1C[C@H](O)[C@@H](CO)O1 [Cladribine] | 1,60 |
| CCCCCCC[N+](CC)(CC)CCCCc1ccc(Cl)cc1.Cc1ccc(S(=O)(=O)[O-])cc1 [Clofilium tosylate] | 2,76 |
| COc1cc2c(c(OC)c1OC)-c1ccc(OC)c(=O)cc1[C@@H](NC(C)=O)CC2 [Colchicine] | 1,93 |
| CN(C)/N=N/c1[nH]cnc1C(N)=O [Dacarbazine] | 2,34 |
| COc1cccc2c1C(=O)c1c(O)c3c(c(O)c1C2=O)C[C@@](O)(C(C)=O)C[C@@H]3O[C@H]1C[C@H](N)[C@H](O)[C@H](C)O1 [Daunorubicin hydrochloride] | 1,79 |
| Cc1cc(N)c2ccccc2[n+]1CCCCCCCCCC[n+]1c(C)cc(N)c2ccccc21 [Dequalinium dichloride] | 4,90 |
| Clc1ccc2c(c1)CCc1cccnc1C2=C1CCNCC1 [Desloratadine] | 1,59 |
| CC1(C)O[C@@H]2C[C@H]3[C@@H]4CCC5=CC(=O)C=C[C@]5(C)[C@H]4[C@@H](O)C[C@]3(C)[C@]2(C(=O)CO)O1 [Desonide] | 1,59 |
| CC(=O)O[C@@]12CO[C@@H]1C[C@H](O)[C@@]1(C)C(=O)[C@H](O)C3=C(C)[C@@H](OC(=O)[C@H](O)[C@@H](NC(=O)OC(C)(C)C)c4ccccc4)C[C@@](O)([C@@H](OC(=O)c4ccccc4)[C@H]21)C3(C)C [Docetaxel] | 1,72 |
| COc1cccc2c1C(=O)c1c(O)c3c(c(O)c1C2=O)C[C@@](O)(C(=O)CO)C[C@@H]3O[C@H]1C[C@H](N)[C@H](O)[C@H](C)O1 [Doxorubicin hydrochloride] | 4,48 |

| SMILES | Z-score |
| --- | --- |
| C[C@H]1c2cccc(O)c2C(=O)C2=C(O)[C@]3(O)C(=O)C(C(N)=O)=C(O)[C@@H](N(C)C)[C@@H]3[C@@H](O)[C@@H]21 [Doxycycline hydrochloride] | 3,00 |
| C=CCOC(Cn1ccnc1)c1ccc(Cl)cc1Cl (stereo not shown) [Enilconazole] | 3,25 |
| C[C@]12CC[C@H]3C(=CCc4cc(O)ccc43)[C@@H]1CCC2=O [Equilin] | 1,98 |
| C[C@]12CC[C@@H]3c4ccc(OC(=O)N(CCCl)CCCl)cc4CC[C@H]3[C@@H]1CC[C@@H]2O [Estramustine] | 3,30 |
| CCOc1ccc(Cc2nccc3cc(OCC)c(OCC)cc23)cc1OCC [Ethaverine hydrochloride] | 4,10 |
| C#C[C@]1(O)CC[C@H]2[C@@H]3CCc4cc(OC)ccc4[C@H]3CC[C@@]21C [Ethynylestradiol 3-methyl ether] | 1,52 |
| O=c1[nH]c(=O)n([C@H]2C[C@H](O)[C@@H](CO)O2)cc1F [Floxuridine] | 4,71 |
| COC(=O)Nc1nc2cc(C(=O)c3ccc(F)cc3)ccc2[nH]1 [Flubendazol] | 3,95 |
| CC(=O)O[C@H]1C[C@@]2(C)[C@@H](C[C@@H](O)[C@H]3[C@@]4(C)CC[C@@H](O)[C@@H](C)[C@@H]4CC[C@@]32C)/C1=C(\CCC=C(C)C)C(=O)O [Fusidic acid sodium salt] | 2,35 |
| COc1cc2ncnc(Nc3ccc(F)c(Cl)c3)c2cc1OCCCN1CCOCC1 [Gefitinib] | 3,33 |
| Oc1c(Cl)cc(Cl)c(Cl)c1Cc1c(O)c(Cl)cc(Cl)c1Cl [Hexachlorophene] | 3,99 |
| CC[C@H](c1ccc(O)cc1)[C@@H](CC)c1ccc(O)cc1 [Hexestrol] | 2,65 |
| CN1CCCN(C(c2ccccc2)c2ccc(Cl)cc2)CC1.Cl.Cl (stereo not shown) [Homochlorcyclizine dihydrochloride] | 2,19 |
| CC(C)C(=O)c1c(C(C)C)nn2ccccc12 [Ibudilast] | 1,71 |
| Cc1ccc(NC(=O)c2ccc(CN3CCN(C)CC3)cc2)cc1Nc1nccc(-c2cccnc2)n1 [Imatinib] | 2,20 |
| CC(C)Oc1ccc2c(=O)c(-c3ccccc3)coc2c1 [Ipriflavone] | 2,37 |
| CCc1c2c(nc3ccc(OC(=O)N4CCC(N5CCCCC5)CC4)cc13)-c1cc3c(c(=O)n1C2)COC(=O)[C@]3(O)CC.Cl.O.O.O [Irinotecan hydrochloride trihydrate] | 4,23 |
| Cc1c(OCC(F)(F)F)ccnc1C[S+]([O-])c1nc2ccccc2[nH]1 (stereo not shown) [Lansoprazole] | 3,43 |
| CNCCCC12CCC(c3ccccc31)c1ccccc12 [Maprotiline hydrochloride] | 2,05 |
| O=C([O-])c1ccccc1-c1c2cc(Br)c(=O)cc-2oc2[c]([Hg+])c([O-])c(Br)cc12.[Na+].[Na+].[OH-] [Merbromin] | 8,74 |
| COC(=O)Nc1nc2ccc(SC(C)C)cc2[nH]1 [Methiazole] | 3,16 |
| CC[C@H](C)C(=O)O[C@H]1CCC=C2C=C[C@H](C)[C@H](CC[C@@H]3C[C@@H](O)CC(=O)O3)[C@H]21 [Mevastatin] | 1,92 |
| CN(C)c1ccc(O)c2c1C[C@H]1C[C@H]3[C@H](N(C)C)C(O)=C(C(N)=O)C(=O)[C@@]3(O)C(O)=C1C2=O [Minocycline hydrochloride] | 4,43 |
| CN(c1nccc(=O)[nH]1)C1CCN(c2nc3ccccc3n2Cc2ccc(F)cc2)CC1 [Mizolastine] | 2,15 |

| SMILES | Z-score |
| --- | --- |
| C[C@@H]1C[C@H]2[C@@H]3CCC4=CC(=O)C=C[C@]4(C)[C@@]3(Cl)[C@@H](O)C[C@]2(C)[C@@]1(OC(=O)c1ccco1)C(=O)CCl [Mometasone furoate] | 2,51 |
| C/C(=C\C(=O)OCCCCCCCCC(=O)O)C[C@@H]1OC[C@H](C[C@@H]2O[C@H]2[C@@H](C)[C@H](C)O)[C@@H](O)[C@H]1O [Mupirocin] | 1,57 |
| O=C1CN(/N=C/c2ccc([N+](=O)[O-])o2)C(=O)N1 [Nitrofurantoin] | 2,23 |
| COC(=O)Nc1nc2ccc(C(=O)c3cccs3)cc2[nH]1 [Nocodazole] | 2,99 |
| COC(=O)Nc1nc2ccc([S+]([O-])c3ccccc3)cc2[nH]1 (stereo not shown) [Oxfendazol] | 1,63 |
| CCCOc1ccc2nc(NC(=O)OC)[nH]c2c1 [Oxibendazol] | 2,13 |
| CN(C)[C@@H]1C(O)=C(C(N)=O)C(=O)[C@@]2(O)C(O)=C3C(=O)c4c(O)cccc4[C@@](C)(O)[C@H]3[C@H](O)[C@@H]12 [Oxytetracycline dihydrate] | 2,06 |
| COc1ccc(Cc2nccc3cc(OC)c(OC)cc23)cc1OC [Papaverine hydrochloride] | 4,33 |
| CCCCc1ccc2[nH]c(NC(=O)OC)nc2c1 [Parbendazole] | 2,56 |
| N=C(N)c1ccc(OCCCCCOc2ccc(C(=N)N)cc2)cc1 [Pentamidine isethionate] | 6,07 |
| O=C(O)CN(CCN(CC(=O)O)CC(=O)O)CCN(CC(=O)O)CC(=O)O [Pentetic acid] | 2,14 |
| C1CCC(C(CC2CCCCN2)C2CCCCC2)CC1 (stereo not shown) [Perhexiline maleate] | 2,68 |
| CC(=O)Nc1ccc(OCC(O)CNC(C)C)cc1 (stereo not shown) [Practolol] | 1,57 |
| COCCCOc1ccnc(C[S+]([O-])c2nc3ccccc3[nH]2)c1C (stereo not shown) [Rabeprazole Sodium salt] | 3,89 |
| O=C(O)c1cn(-c2ccc(F)cc2)c2cc(N3CCNCC3)c(F)cc2c1=O [Sarafloxacin] | 2,16 |
| C[C@@H]1CN(c2c(F)c(N)c3c(=O)c(C(=O)O)cn(C4CC4)c3c2F)C[C@H](C)N1 [Sparfloxacin] | 2,09 |
| CS(=O)(=O)c1ccc([C@@H](O)[C@@H](CO)NC(=O)C(Cl)Cl)cc1 [Thiamphenicol] | 2,42 |
| CN1CCN(CCCN2c3ccccc3Sc3ccc(S(=O)(=O)N(C)C)cc32)CC1.CS(=O)(=O)O.CS(=O)(=O)O [Thioproperazine dimesylate] | 2,39 |
| C=C(NC(=O)C(=C)NC(=O)c1csc(C2=N[C@@H]3c4csc(n4)[C@H]4NC(=O)c5csc(n5)[C@H]([C@](C)(O)[C@@H](C)O)NC(=O)[C@H]5CSC(=N5)/C(=C/C)NC(=O)[C@H]([C@@H](C)O)NC(=O)c5csc(n5)[C@]3(CC2)NC(=O)[C@H](C)NC(=O)C(=C)NC(=O)[C@H](C)NC(=O)[C@H]([C@@H](C)CC)N[C@@H]2C=Cc3c([C@H](C)O)cc(nc3[C@H]2O)C(=O)O[C@@H]4C)n1)C(N)=O [Thiostrepton] | 5,52 |
| O=C(O)Cc1cc(I)c(Oc2ccc(O)c(I)c2)c(I)c1 [Tiratricol, 3,3',5-triiodothyroacetic acid] | 4,40 |
| Cl.NC1CCN(c2nc3c(cc2F)c(=O)c(C(=O)O)cn3-c2ccc(F)cc2F)C1 (stereo not shown) [Tosufloxacin hydrochloride] | 1,77 |
| O=C(CCCCCCC(=O)Nc1ccccc1)NO [Vorinostat] | 4,62 |
